From patent publication US4992530A, “Calcitonin-gene-related peptide derivatives” (Toyo Jozo Kabushiki Kaisha, priority 1987, dated 1991)
Ends that are not written are not given here. Peptide text beside a SMILES is read from it.

Experiments:
[1] = Serum calcium reducing activity in rats (atomic absorption spectrophotometry); type: in vivo; conditions: 80 μg/kg intravenously, Wistar rats; for prolongation of serum calcium reducing effect compared with h-CGRP / serum calcium reducing activity compared with h-CGRP: comparator h-CGRP; for serum calcium reducing activity compared with h-CGRP: same dose; for reduction of serum calcium concentration as compared with the control group: tail vein, vs dissolving medium group, FIG. 1
Protocol: (§1) Serum calcium and serum phosphate reducing activities: Assay method:
(§2) The peptide (1) of the present invention and known h-CGRP (each 80 μg) dissolved in citrate buffer, pH 6.5, containing 0.1% bovine serum albumin (hereinafter designated dissolving medium) (1 ml) were administered intravenously into the tail vein of Wistar rats, body weight 80-90 g, 5-6 rats in one group, at 80 μg/kg. After 30 and 60 mins. of administration, blood samples were collected from the abdominal descending aorta. The serum calcium concentration was measured by atomic adsorption spectrophotometry. Serum phosphate was measured by a method according to Goldenberg et al. [Clin. Chem., 12: 872-882 (1966)].

[2] = Serum phosphate reducing activity in rats (method of Goldenberg et al.); type: in vivo; conditions: 80 μg/kg intravenously, Wistar rats; for prolongation of serum phosphate reducing effect compared with h-CGRP / serum phosphate reducing activity compared with h-CGRP: comparator h-CGRP; for serum phosphate reducing activity compared with h-CGRP: same dose; for reduction of serum phosphate concentration as compared with the control group: tail vein, vs dissolving medium group, FIG. 2
Protocol: as §1, §2

| Molecule | duration of serum calcium reducing activity [1] | prolongation of serum calcium reducing effect compared with h-CGRP [1] | serum calcium reducing activity compared with h-CGRP [1] | reduction of serum calcium concentration as compared with the control group [1] | duration of serum phosphate reducing activity [2] | prolongation of serum phosphate reducing effect compared with h-CGRP [2] | serum phosphate reducing activity compared with h-CGRP [2] | reduction of serum phosphate concentration as compared with the control group [2] |
| --- | --- | --- | --- | --- | --- | --- | --- | --- |
| CC(C)C[C@H](NC(=O)[C@H](CCCNC(=N)N)NC(=O)[C@H](Cc1c[nH]cn1)NC(=O)[C@@H](NC(=O)[C@@H](NC(=O)[C@@H]1CSSC[C@H](NC(=O)[C@H](C)N)C(=O)N[C@@H](CC(N)=O)C(=O)N[C@@H]([C@@H](C)O)C(=O)N[C@@H](C)C(=O)N[C@@H]([C@@H](C)O)C(=O)N1)C(C)C)[C@@H](C)O)C(=O)N[C@@H](C)C(=O)N[C@@H](CC(=O)O)C(=O)N[C@@H](Cc1ccccc1)C(=O)N[C@@H](CC(C)C)C(=O)N[C@@H](CO)C(=O)N[C@@H](CCCNC(=N)N)C(=O)N[C@@H](CO)C(=O)NCC(=O)NCC(=O)N[C@H](C(=O)N[C@H](C(=O)N[C@@H](CCCCN)C(=O)N[C@@H](CC(N)=O)C(=O)N[C@@H](CC(N)=O)C(=O)N[C@@H](Cc1ccccc1)C(=O)N[C@H](C(=O)N1CCC[C@H]1C(=O)N[C@H](C(=O)N[C@@H](CC(N)=O)C(=O)N[C@H](C(=O)NCC(=O)N[C@@H](CO)C(=O)N[C@@H](CCCCN)C(=O)N[C@@H](C)C(=O)N[C@@H](Cc1ccccc1)C(N)=O)C(C)C)[C@@H](C)O)C(C)C)C(C)C)C(C)C [Asn^3,Asp^14,Phe^15] h-CGRP(1-37), [Asn^3,Asp^14,Phe^15] h-CGRP(1-37)] (HELM PEPTIDE1{A.C.N.T.A.T.C.V.T.H.R.L.A.D.F.L.S.R.S.G.G.V.V.K.N.N.F.V.P.T.N.V.G.S.K.A.F.[am]}$PEPTIDE1,PEPTIDE1,2:R3-7:R3$$$V2.0) | more than 2 hours | prolonged significantly | stronger than those of h-CGRP | 20-30% | more than 2 hours | prolonged significantly | stronger than those of h-CGRP | 20-30% |
| CC(C)C[C@H](NC(=O)[C@H](CCCNC(=N)N)NC(=O)[C@H](Cc1c[nH]cn1)NC(=O)[C@@H](NC(=O)[C@@H](NC(=O)[C@@H]1CSSC[C@H](NC(=O)[C@H](C)N)C(=O)N[C@@H](CC(N)=O)C(=O)N[C@@H]([C@@H](C)O)C(=O)N[C@@H](C)C(=O)N[C@@H]([C@@H](C)O)C(=O)N1)C(C)C)[C@@H](C)O)C(=O)N[C@@H](C)C(=O)NCC(=O)N[C@@H](Cc1ccccc1)C(=O)N[C@@H](CC(C)C)C(=O)N[C@@H](CO)C(=O)N[C@@H](CCCNC(=N)N)C(=O)N[C@@H](CO)C(=O)NCC(=O)NCC(=O)N[C@H](C(=O)NCC(=O)N[C@@H](CCCCN)C(=O)N[C@@H](CC(N)=O)C(=O)N[C@@H](CC(N)=O)C(=O)N[C@@H](Cc1ccccc1)C(=O)N[C@H](C(=O)N1CCC[C@H]1C(=O)N[C@H](C(=O)N[C@@H](CC(N)=O)C(=O)N[C@H](C(=O)NCC(=O)N[C@@H](CO)C(=O)N[C@@H](CCCCN)C(=O)N[C@@H](C)C(=O)N[C@@H](Cc1ccccc1)C(N)=O)C(C)C)[C@@H](C)O)C(C)C)C(C)C [[Asn^3, Phe^15,Gly^23] h-CGRP(1-37), [Asn^3,Phe^15,Gly^23] h-CGRP(1-37)] (HELM PEPTIDE1{A.C.N.T.A.T.C.V.T.H.R.L.A.G.F.L.S.R.S.G.G.V.G.K.N.N.F.V.P.T.N.V.G.S.K.A.F.[am]}$PEPTIDE1,PEPTIDE1,2:R3-7:R3$$$V2.0) | more than 2 hours | prolonged significantly | stronger than those of h-CGRP | 20-30% | more than 2 hours | prolonged significantly | stronger than those of h-CGRP | 20-30% |
| desalanyl-deamino-[Asp^14 ] h-CGRP(2-37) [desalanyl-deamino-[Asp14] h-CGRP(2-37)] | more than 2 hours | prolonged significantly | stronger than those of h-CGRP | 20-30% | more than 2 hours | prolonged significantly | stronger than those of h-CGRP | 20-30% |
| CC(C)C[C@H](NC(=O)[C@H](CCCNC(=N)N)NC(=O)[C@H](Cc1c[nH]cn1)NC(=O)[C@@H](NC(=O)[C@@H](NC(=O)[C@@H]1CSSC[C@H](NC(=O)[C@H](C)N)C(=O)N[C@@H](CC(N)=O)C(=O)N[C@@H]([C@@H](C)O)C(=O)N[C@@H](C)C(=O)N[C@@H]([C@@H](C)O)C(=O)N1)C(C)C)[C@@H](C)O)C(=O)N[C@@H](C)C(=O)N[C@@H](CC(=O)O)C(=O)N[C@@H](CC(C)C)C(=O)N[C@@H](CC(C)C)C(=O)N[C@@H](CO)C(=O)N[C@@H](CCCNC(=N)N)C(=O)N[C@@H](CO)C(=O)NCC(=O)NCC(=O)N[C@H](C(=O)NCC(=O)N[C@@H](CCCCN)C(=O)N[C@@H](CC(N)=O)C(=O)N[C@@H](CC(N)=O)C(=O)N[C@@H](Cc1ccccc1)C(=O)N[C@H](C(=O)N1CCC[C@H]1C(=O)N[C@H](C(=O)N[C@@H](CC(N)=O)C(=O)N[C@H](C(=O)NCC(=O)N[C@@H](CO)C(=O)N[C@@H](CCCCN)C(=O)N[C@@H](C)C(=O)N[C@@H](Cc1ccccc1)C(N)=O)C(C)C)[C@@H](C)O)C(C)C)C(C)C [[Asn^3,Asp^14,Gly^23] h-CGRP(1-37)] (HELM PEPTIDE1{A.C.N.T.A.T.C.V.T.H.R.L.A.D.L.L.S.R.S.G.G.V.G.K.N.N.F.V.P.T.N.V.G.S.K.A.F.[am]}$PEPTIDE1,PEPTIDE1,2:R3-7:R3$$$V2.0) | more than 2 hours | prolonged significantly | stronger than those of h-CGRP | 20-30% | more than 2 hours | prolonged significantly | stronger than those of h-CGRP | 20-30% |
| [Asp^14 ] h-CGRP(1-37) (ACDTATCVTHRLADLLSRSGGVVKNNFVPTNVGSKAF; ends and bridges not checked; cysteine pairing not given here; UniProt P06881 83-119, looked up, variant G14D) [R = H--Ala--NH--, A = Asp, B = Asp, C = Leu, D = Val] | more than 2 hours | prolonged significantly | stronger than those of h-CGRP | 20-30% | more than 2 hours | prolonged significantly | stronger than those of h-CGRP | 20-30% |
